Results on two compounds are retold here after patent US8653082B2, “6-phenyl-2-[((piperidin-4-ylmethyl)-piperazin-1YL) or piperazin 1-ylmethyl)-piperidin-1-yl)]-imidazo[2,1-B][1,3,4]thiadiazole derivatives and their use” (Urifer Ltd., priority 2009, dated 2014).

What all share (format): cell-based
The subject of one test is SW620. Briefly: XTT cell viability, SW620 colon cancer cells. Particulars: Homo sapiens, SW-620; SW620 colon cancer cell line; XTT test; compound in 30 mM HEPES pH=7, 0.25 to 10 μM; read-out: EC50 values on colon and liver cancer cells, SW620. The method, then:
(§1) The effect of the compounds Z522-0249, Z522-0251, Erbitux and E-626-0342 on the growth profile of cancer cells which express Fer was tested. The cells that were tested were: the colon cancer cell lines HT29, HCT 116, RKO, SW620, and SW48 and the liver cancer cell line Hep3B. The effect of each of the three compounds (Z522-0249, Z522-0251 and E-626-0342) on FS11 cells, a non malingnant fibroblastic cell line, was also studied.
(§2) Cells were seeded in 96 well microplates and were left to grow untreated overnight. Z522-0249 and Z522-0251 were dissolved in 30 mM HEPES pH=7 and were then added to each well in a dose dependent manner from 0.25 to 10 μM. E626-0342 was dissolved in DMSO and was then added to each well in a dose dependent manner from 0.1 to 5 μM. The concentration of DMSO in each well was 0.4% v/v. Untreated cells and cells subjected to 30 mM HEPEs pH=7 or 0.4% DMSO alone, served as controls. The number of viable cells in each well was determined 48, 72, and 96 hours after compound addition, using the XTT test (Berridge, M. V. et al, 2005).
(Tetrazolium assays rely on reduction of a dye to a coloured formazan, in cell work by metabolically active cells.)

Another test has as its system HCT116. In words: XTT cell viability, HCT116 colon cancer cells. Particulars: Homo sapiens, HCT-116; HCT116 colon cancer cell line; XTT test; compound in 30 mM HEPES pH=7, 0.25 to 10 μM; read-out: EC50 values on colon and liver cancer cells, HCT116. The procedure: as §1, §2
A further test relates to Hep3B. In words: XTT cell viability, Hep3B liver cancer cells. The following applies: Homo sapiens; Hep3B liver cancer cell line; XTT test; compound in 30 mM HEPES pH=7, 0.25 to 10 μM; read-out: EC50 values on colon and liver cancer cells, Hep3B. The method, then:
as §1, §2

The subject of the next test is SW48. Briefly: XTT cell viability, SW48 colon cancer cells. Particulars: Homo sapiens; SW48 colon cancer cell line; XTT test; compound in 30 mM HEPES pH=7, 0.25 to 10 μM; read-out: EC50 values on colon and liver cancer cells, SW48. The method, then: as §1, §2
A further test concerns HT29. In words: XTT cell viability, HT29 colon cancer cells. Particulars: Homo sapiens, HT-29; HT29 colon cancer cell line; XTT test; compound in 30 mM HEPES pH=7, 0.25 to 10 μM; read-out: EC50 values on colon and liver cancer cells, HT29. The method, then: as §1, §2
The next test has as its system FS (normal fibroblasts). Briefly: XTT cell viability, FS (normal fibroblasts). The following applies: Fibroblast; FS normal (non malignant) fibroblasts; XTT test; compound in 30 mM HEPES pH=7, 0.25 to 10 μM. The method, then:
as §1, §2

The next test relates to RKO. Briefly: XTT cell viability, RKO colon cancer cells. Particulars: Homo sapiens; RKO colon cancer cell line; XTT test; compound in 30 mM HEPES pH=7, 0.25 to 10 μM; read-out: EC50 values on colon and liver cancer cells, RKO. The procedure: as §1, §2

SMILES strings stand for the structures.

Usually EC50 stands for the concentration that produces a half-maximal response. With `CC(C)c1ccc(-c2cn3nc(N4CCN(CC5CCN(C)CC5)CC4)sc3n2)cc1` [Z522-0249, 6-(4-isopropylphenyl)-2-{4-[(1-methylpiperidin-4-yl)methyl]piperazin-1-yl}imidazo[2,1-b][1,3,4]thiadiazole], the concentration giving a half-maximal response (EC50) is 500 to 1000 nM in the test with SW620; 3000 nM in the test with HCT116; 1000 to 2000 nM with Hep3B; 500 to 1000 nM with SW48; 2000 nM in the test with HT29; 10 µM in the test with FS (normal fibroblasts). Besides, the EC50 in the test on RKO was in the range of 1000 to 2000 nM.

Consider `CC(C)c1ccc(-c2cn3nc(N4CCC(CN5CCN(C)CC5)CC4)sc3n2)cc1` [Z522-0251, 6-(4-isopropyl-phenyl)-2-{4-[(4-methyl-piperazin-1-yl)methyl]piperidin-1-yl}imidazo[2,1-b][1,3,4]thiadiazole], for which the concentration giving a half-maximal response (EC50) in the test on SW620 was 500 to 1000 nM; in the test with HCT116, 3000 to 4000 nM; with Hep3B it was 1000 to 2000 nM; with SW48, 500 to 1000 nM; in the test on HT29 it was 2000 to 3000 nM; with RKO, 2000 to 3000 nM.
